Assays:
[1] = system: 3T3-L1 mouse preadipocytes; test: Inhibition of adipocyte differentiation, Oil Red O staining of triglycerides; format: cell-based; parameters: dose or concentration left out as unconfirmed; settings: coumestrol administered continuously, about 7 days differentiation; compared with rosiglitazone and berberine
Method: (§1) In order to evaluate the coumestrol's effect of inhibiting adipocyte differentiation, […] coumestrol (CMS) was administered continuously while 3T3-L1 mouse preadipocytes (CL-173, ATCC) were differentiated into adipocytes. […] Rosiglitazone (Rosi), which is known to promote adipocyte differentiation, was used as positive control and […] berberine (BBR), which is known to inhibit adipocyte differentiation, was used as negative control. On the day when adipocyte differentiation was started and on days 2, 4 and 6, the test substance was administered and the medium was changed. The adipocyte differentiation was carried out for about 7 days when the adipocyte differentiation was completed in the positive control group.
Then, differentiation of adipocytes was identified by staining triglycerides in the cells with Oil Red O (Sigma).

[2] = system: aP2, Acrp30, PPAR, SREBP1c and FAS mRNA in adipocytes; test: Expression of adipocyte-specific genes by Q-PCR; format: cell-based, mouse; parameters: dose or concentration left out as unconfirmed; settings: coumestrol, relative to untreated group
Method: as §1
Also, expression of adipocyte-specific genes in the in the adipocytes was investigated by Q-PCR. The genes tested were aP2 (fatty acid binding protein 4, adipocyte specific type), Acrp30 (adiponectin), PPAR (peroxisome proliferator-activated receptor), SREBP1c (sterol regulatory element binding protein 1c) and FAS (fatty acid synthase), which are used as molecular markers of adipocyte differentiation and fatty acid synthesis.

mouse spleen cells = test: Immune cell proliferating activity (CCK-8); format: cell-based, ICR mouse; settings: 44 hours, relative to untreated group (100)
Method: Spleen was aseptically removed from an ICR mouse sacrificed by cervical dislocation. The spleen was washed with an RPMI 1640 solution and lightly smashed with a sterilized glass rod to isolate the mouse spleen cells. A suspension of the isolated cells was passed through a 200-mesh stainless steel sieve (Sigma Chemical Co., St. Louis, Mo., USA) and centrifuged for 10 minutes at 4° C. and 3,000 rpm in a 50-mL centrifuge tube. The resulting cell pellets were suspended in a lysing buffer (Tris-buffered ammonium chloride; 0.87% NH4Cl, pH 7.2) for 5 minutes to remove red blood cells. The cells were washed twice with RPMI by centrifugal washing, diluted to 5.0×10^6 cells/mL in 10%-FBS RPMI 1640, and seeded on a 96-well plate, with 90 μL per each well, for measurement of cell proliferating activity. After preparing a stock solution such that the final concentration of coumestrol was 0.1 or 1 μM and adding 10 μL to each well, the cells were cultured for 44 hours and the proliferating activity of the spleen cells was measured (CCK-8, Dojindo Laboratories, Japan). 10 μL of 10 μg/mL LPS was used as positive control.

[3] = system: Human umbilical vein endothelial cells (HUVECs); test: Nicotine detoxifying effect, viability of vascular endothelial cells; format: cell-based; settings: HUVEC, 25 mM nicotine, 24 hours, relative to untreated group, nicotine only 55.1
Method: Human umbilical vein endothelial cells (HUVECs, CRL-2873, ATCC) were used to evaluate the coumestrol's effect against nicotine which is a major toxic substance included in cigarettes. HUVECs were cultured under the condition of 37° C. and 5% CO2 using the microvascular endothelial cell growth medium-2 (EGM-2). The cells were seeded onto a 96-well plate, with 2×10^4 cells per well, and cultured for about 24 hours in a medium containing 10% FBS until ˜80% confluency. After treating with nicotine to a final concentration of 25 mM, the cells were cultured for 24 hours with 0.1, 1 or 10 μM coumestrol, except for the negative control group.

SH-SY5Y cells [4] = test: cells; format: cell-based; settings: Homo sapiens, read-out: Viability of nerve cells (%)
Method: (§2) SH-SY5Y cells (CRL-2266, ATCC) were used to evaluate the coumestrol's effect of protecting nerve cells from neurotoxins. The cells were cultured in a medium comprising 90% DMEM, 10% fetal calf serum, 100 IU/mL penicillin and 100 μg/mL streptomycin under the condition of 37° C. and 5% CO2. When the cells grew confluent, they were harvested with trypsin, diluted on a 96-well plate to 1×10^4 cells per well, and then grafted onto a culture dish. 24 hours later, after treating the cultured cells with 0.01, 0.1 or 1 μM coumestrol, the cells were treated with 50 μM 6-OHDA 2 hours later to induce cytotoxicity. A negative control group was treated only with 50 μM 6-OHDA. Also, mitochondrial potential of the cells was measured using the JC-1 fluorescent reagent (Beyotime, China).

SH-SY5Y cells [5] = test: Inhibition of decline of mitochondrial potential (JC-1); format: cell-based; settings: 50 μM 6-OHDA, negative control 0
Method: as §2

SH-SY5Y cells [6] = test: Scavenging of reactive oxygen species produced by 6-OHDA (DCFH-DA); format: cell-based; settings: 50 μM 6-OHDA, 6 hours, relative to negative control
Method: The same cells used in Test Example 4-1 were cultured under the same condition. The cultured cells were treated with 0.01, 0.1 or 1 μM coumestrol and then treated with 50 μM 6-OHDA 2 hours later to induce increase of reactive oxygen species (ROS) in the cells. After culturing the cells for 6 hours in an incubator, the quantity of ROS in the cells was measured using DCFH-DA and the decrease of the ROS was evaluated relative to the negative control group. The fluorescence intensity of DCF was measured with the Wallac VICTOR2 fluorometer (Wallac, Turku, Finland) at excitation wavelength of 485 nm and emission wavelength of 530 nm. ROS scavenging effect (%) relative to the negative control group was calculated from the measured fluorescence intensity.

[7] = cited from earlier work

O=c1oc2cc(O)ccc2c2oc3cc(O)ccc3c12 [Coumestrol, 3,9-dihydroxy-6H-benzofuro(3,2-c)(1)benzopyran-6-one]
adipocyte differentiation (Oil Red O stained area) [1]: remarkably decreased
mRNA expression of the molecular markers of adipocyte differentiation and fatty acid synthesis [2]: remarkably decreased
activity at 0.1 µM (mouse spleen cells; 0.1 μM): 278%
activity at 1 µM (mouse spleen cells; 1 μM): 283%
viability at 0.1 µM ([3]; 0.1 μM): 67.2%
viability at 1 µM ([3]; 1 μM): 72.2%
viability at 10 µM ([3]; 10 μM): 88.9%
viability at 0.01 µM (SH-SY5Y cells [4]): 94.4%
viability at 0.1 µM (SH-SY5Y cells [4]): 96.5%
viability at 1 µM (SH-SY5Y cells [4]): 98.2%
Effect of inhibiting decline of mitochondrial potential (%) (SH-SY5Y cells [5]; 0.01 μM): 13.2%
Effect of inhibiting decline of mitochondrial potential (%) (SH-SY5Y cells [5]; 0.1 μM): 29.1%
Effect of inhibiting decline of mitochondrial potential (%) (SH-SY5Y cells [5]; 1 μM): 43.0%
ROS scavenging effect (%) (SH-SY5Y cells [6]; 0.01 μM): 73.0%
ROS scavenging effect (%) (SH-SY5Y cells [6]; 0.1 μM): 86.7%
ROS scavenging effect (%) (SH-SY5Y cells [6]; 1 μM): 93.5%
bioavailability upon oral administration [7]: about 11.7%
